Experimental findings from BindingDB's records for doi:10.1016/j.bmcl.2008.02.015 (Deltagen Research Laboratories (Former Combichem), 2008) are described below.

A short description of the assay: Antagonist activity at human CCR2 in THP1 cells assessed as inhibition of MCP1-induced chemotaxis.
In the case of `O=C(CNC(=O)c1cccc(C(F)(F)F)c1)N[C@@H]1CCN(Cc2ccc(OC(F)(F)F)cc2)C1`, the IC50 (commonly the point on the concentration scale where inhibition reaches its midpoint) is 0.103 µM.

Take `CSc1ccc(CN2CC[C@@H](NC(=O)CNC(=O)c3cccc(C(F)(F)F)c3)C2)cc1`: the 50% inhibitory concentration (IC50) is 0.021 µM.

On to `O=C(CNC(=O)c1cccc(C(F)(F)F)c1)N[C@@H]1CCN(Cc2ccccc2)C1`, for which the IC50 came out at 0.418 µM.

For the compound `COc1cc(CN2CC[C@@H](NC(=O)CNC(=O)c3cc(C(F)(F)F)ccc3N)C2)ccc1O`, the IC50 came out at 0.014 µM.

Consider `COc1ccc(CN2CC[C@@H](NC(=O)CNC(=O)c3cc(C(F)(F)F)ccc3N)C2)cc1N`, for which the IC50 came out at 0.0088 µM.

Regarding `COc1ccc(CN2CC[C@@H](NC(=O)CNC(=O)c3cc(C(F)(F)F)ccc3N)C2)cc1`, the IC50 came out at 0.011 µM.

As to `Nc1ccc(C(F)(F)F)cc1C(=O)NCC(=O)N[C@@H]1CCN(Cc2ccc(Br)cc2)C1`, the IC50 was found to be 0.0026 µM.

For `Nc1ccc(I)cc1C(=O)NCC(=O)N[C@@H]1CCN(Cc2ccc(Cl)cc2)C1`, the 50% inhibitory concentration (IC50) was determined as 0.022 µM.

On to `Cc1ccc(CN2CC[C@@H](NC(=O)CNC(=O)c3cc(C(F)(F)F)ccc3N)C2)cc1N`, for which the IC50 is 0.012 µM.

For `Nc1cc(CN2CC[C@@H](NC(=O)CNC(=O)c3cc(C(F)(F)F)ccc3N)C2)ccc1Cl`, the IC50 is 0.011 µM.

As for `Nc1ccc(C(F)(F)F)cc1C(=O)NCC(=O)N[C@@H]1CCN(Cc2ccc(O)cc2)C1`, the IC50 turned out to be 0.0051 µM.

For the compound `C=Cc1ccc(CN2CC[C@@H](NC(=O)CNC(=O)c3cc(C(F)(F)F)ccc3N)C2)cc1`, the IC50 worked out at 0.0039 µM.

Consider `CCc1ccc(CN2CC[C@@H](NC(=O)CNC(=O)c3cc(C(F)(F)F)ccc3N)C2)cc1`, for which the IC50 turned out to be 0.00089 µM.

For the compound `Cc1ccc(CN2CC[C@@H](NC(=O)CNC(=O)c3cc(C(F)(F)F)ccc3N)C2)cc1`, the IC50 turned out to be 0.0031 µM.

Turning to `Nc1ccc(C(F)(F)F)cc1C(=O)NCC(=O)N[C@@H]1CCN(Cc2ccc(Cl)cc2)C1`, the 50% inhibitory concentration (IC50) was 0.0036 µM.

For the compound `Cc1ccc(CN2CC[C@@H](NC(=O)CNC(=O)c3cccc(C(F)(F)F)c3)C2)cc1`, the IC50 is 0.0124 µM.

With `Nc1ccc(OC(F)(F)F)cc1C(=O)NCC(=O)N[C@@H]1CCN(Cc2ccc(Cl)cc2)C1`, the IC50 was determined as 0.043 µM.

`Nc1ccc([N+](=O)[O-])cc1C(=O)NCC(=O)N[C@@H]1CCN(Cc2ccc(Cl)cc2)C1`: the half-inhibitory concentration (IC50) was found to be 0.043 µM.

In the case of `O=C(CNC(=O)c1cccc([N+](=O)[O-])c1)N[C@@H]1CCN(Cc2ccc(Cl)cc2)C1`, the IC50 is 0.445 µM.

On to `O=C(CNC(=O)c1cccc(OC(F)(F)F)c1)N[C@@H]1CCN(Cc2ccc(Cl)cc2)C1`, for which the IC50 is 0.36 µM.

Regarding `O=C(CNC(=O)c1cccc(Br)c1)N[C@@H]1CCN(Cc2ccc(Cl)cc2)C1`, the IC50 turned out to be 0.473 µM.

For the compound `O=C(CNC(=O)c1cccc(C(F)(F)F)c1)N[C@@H]1CCN(Cc2ccccc2-c2ccc3ccccc3c2)C1`, the IC50 came to 0.074 µM.

As to `COc1cc(CN2CC[C@@H](NC(=O)CNC(=O)c3cccc(C(F)(F)F)c3)C2)ccc1O`, the IC50 came to 0.077 µM.

With `O=C(CNC(=O)c1cccc(C(F)(F)F)c1)N[C@@H]1CCN(Cc2ccc(F)cc2)C1`, the IC50 was determined as 0.121 µM.

Take `O=C(CNC(=O)c1cccc(C(F)(F)F)c1)N[C@@H]1CCN(Cc2ccc(O)cc2)C1`: the IC50 was 0.0055 µM.

`C=Cc1ccc(CN2CC[C@@H](NC(=O)CNC(=O)c3cccc(C(F)(F)F)c3)C2)cc1`: the 50% inhibitory concentration (IC50) came out at 0.0062 µM.

Take `O=C(CNC(=O)c1cccc(C(F)(F)F)c1)N[C@@H]1CCN(Cc2ccc(Br)cc2)C1`: the half-inhibitory concentration (IC50) turned out to be 0.021 µM.

Consider `CCc1ccc(CN2CC[C@@H](NC(=O)CNC(=O)c3cccc(C(F)(F)F)c3)C2)cc1`, for which the IC50 was found to be 0.0094 µM.

Consider `COc1ccc(CN2CC[C@@H](NC(=O)CNC(=O)c3cccc(C(F)(F)F)c3)C2)cc1`, for which the half-maximal inhibitory concentration (IC50) amounted to 0.035 µM.

As for `Cc1ccccc1CN1CC[C@@H](NC(=O)CNC(=O)c2cccc(C(F)(F)F)c2)C1`, the IC50 came to 0.127 µM.

As for `O=C(CNC(=O)c1cccc(C(F)(F)F)c1)N[C@@H]1CCN(Cc2ccccc2Cl)C1`, the IC50 amounted to 0.418 µM.

`Cc1ccc(CN2CC[C@@H](NC(=O)CNC(=O)c3cc(C(F)(F)F)ccc3N)C2)c(C)c1`: the IC50 was found to be 0.00083 µM.

Take `O=C(CCNC(=O)c1cccc(C(F)(F)F)c1)N[C@@H]1CCN(Cc2ccc(Cl)cc2)C1`: the IC50 turned out to be 10 µM.

As to `CC(NC(=O)c1cccc(C(F)(F)F)c1)C(=O)N[C@@H]1CCN(Cc2ccc(Cl)cc2)C1` (stereo partly drawn), the IC50 was 22 µM.

In the case of `COc1ccc(CN2CC[C@@H](NC(=O)CNC(=O)c3cc(C(F)(F)F)ccc3N)C2)cc1O`, the IC50 is 0.0092 µM.

Regarding `Nc1cc(CN2CC[C@@H](NC(=O)CNC(=O)c3cc(C(F)(F)F)ccc3N)C2)ccc1O`, the IC50 is 0.018 µM.

For the compound `Cc1ccc(CN2CC[C@@H](NC(=O)CNC(=O)c3cccc(C(F)(F)F)c3)C2)c(C)c1` [(R)-N-(2-(1-(2,4-dimethylbenzyl)pyrrolidin-3-ylamino)-2-oxoethyl)-3-(trifluoromethyl)benzamide], the IC50 worked out at 0.016 µM.

As for `O=C(CNC(=O)c1cccc(C(F)(F)F)c1)N[C@@H]1CCN(Cc2ccc(Cl)cc2)C1` [(R)-N-(2-(1-(4-chlorobenzyl)pyrrolidin-3-ylamino)-2-oxoethyl)-3-(trifluoromethyl)benzamide], the IC50 was determined as 0.024 µM.
